According to US20090163715A1, “Intermediate in Production of [2-(3,3,5,5-Tetramethylcyclohexyl)phenyl]Piperazine Compound” (EISAI R&D MANAGEMENT CO., LTD., priority 2005, published 2009):

What was measured:
Jurkat cells = experiment: Jurkat cell adhesion system (PMA-stimulated adhesion to immobilized human fibronectin); assay type: cell-based; settings: Jurkat cells on human fibronectin-coated 96-well plate, PMA stimulation, 37° C. for 45-60 minutes; read-out: IC50 (concentration which inhibited the increase in the number of adhered cells by the PMA-stimulation by 50%)
Method: Human fibronectin (Becton Dickinson Biosciences) was diluted with phosphate-buffered saline (hereinafter abbreviated as PBS; Sigma) to 0.1-0.01 μg/mL, and the diluted solution was added to a 96-well plate (Becton Dickinson) at 50 μL/well, and allowed to stand overnight at 4° C. On the following day, the supernatant was removed from the plate, and then PBS containing 1% bovine serum albumin (hereinafter abbreviated as BSA; Sigma) was added thereto at 100 μL/well and incubation was performed at 37° C. for 2 hours in a CO2 incubator (Hirasawa).
The supernatant was removed from each plate and Jurkat cells suspended in RPMI-1640 (Sigma) containing 1 mg/mL BSA were added at 80 μL/well for 2.5×10^5 cells/well. The compound (B) diluted to different concentrations with RPMI-1640 containing […] BSA was immediately added at 10 μL/well, and then 100 nM phorbol myristate acetate (hereinafter abbreviated as PMA; Sigma) in RPMI-1640 containing 1 mg/mL BSA was added at 10 μL/well and the plate was incubated in a CO2 incubator at 37° C. for 45-60 minutes. […] After incubation, 50 mM glycine buffer (pH 10.4) containing 5 mM EDTA was added at 90 μL/well, and the absorbance at 405 nm was measured with an EL340 Automated Microplate Reader (BIO-TEK) to determine the adhered cell count.

[1] = tested on: human peripheral blood neutrophils; experiment: Human peripheral blood neutrophil adhesion system (PMA-stimulated adhesion to HUVEC immobilized plate); assay type: cell-based; settings: 0.75 h; BCECF-AM labeled human neutrophils on HUVEC immobilized plate, PMA stimulation, 37° C. for 45 minutes; read-out: IC50 (concentration which inhibited the increase in the number of adhered cells by the PMA-stimulation by 50%)
Method: To a plastic centrifugation tube containing 100 units of heparin sodium (Shimizu Pharmaceutical) was added 25 mL of fresh blood sampled from a healthy human. After adding and mixing therewith 8 mL of physiological saline (Otsuka Pharmaceutical) containing 6% Dextran (Nacalai), the mixture was allowed to stand at room temperature for 45 minutes for sedimentation of the erythrocytes. The resultant supernatant was transferred to another plastic centrifugation tube and combined with an equivalent volume of PBS, and then centrifuged at 1600 rpm for 7 minutes at room temperature. The obtained hematocyte fraction was suspended in 4 mL of PBS, and the suspension was superposed on 4 mL of Ficoll-Paque™ PLUS (Amersham Biosciences). […]
To 6.5 mL of RPMI-1640 medium (Sigma) containing 1 mg/mL of BSA were added 0.5 mL of a suspension of BCECF-AM labeled neutrophils at 5×10^7 cells/mL stored in ice, which was mixed, and the mixture was added at 80 μL/well to a HUVEC immobilized plate. […] The supernatant was removed from the plate, which was then washed several times with RPMI-1640 at 100 μL/well, and then PBS containing 0.1% NP-40 (Calbiochem) was added thereto at 100 μL/well and the fluorescent intensity was measured with an ARVO™SX 1420 multi label counter (Wallac) to determine the number of adhered cells.

IC50 (Jurkat cells): 4.7 µM | IC50 [1]: 7.1 µM
SMILES: CC1(C)CC(c2ccccc2N2CCN(CC3CC3)CC2)CC(C)(C)C1 [compound (B), 1-Cyclopropylmethyl-4-[2-(3,3,5,5-tetramethylcyclohexyl)phenyl]piperazine methanesulfonate]
